{"source": "patent US20030003491A1", "about": "“Method for detecting or quantifying environmental hormones” (priority 2000, published 2003)", "test_system": "LH receptor (LH-R) mRNA expression in rat granulosa cells", "assay": "Microassay for dioxins using FSH-induced LH-R mRNA expression in rat granulosa cells (Northern blotting, densitometry)", "format": "cell-based", "settings": "for amount of LH-R mRNA expressed relative to that without TCDD addition: normalised to GAPDH mRNA, N=3", "protocol": "Rat granulosa cells were obtained from a juvenile female Wistar rat (purchased from Charles River Laboratories, Inc.) which had been injected with 2 mg of diethylstilbestrol (produced by Sigma Chemical Co.) dissolved in 0.1 ml of sesame oil once per day for 4 days. Specifically, the ovary of the juvenile female Wistar rat was removed and a hole was made in its follicle with a 25-gauge needle to take out granulosa cells. During this series of operations, the rat was treated according to the NIH guidelines (Biosafety in microbiological and biomedical laboratories). Then, the obtained granulosa cells were washed and centrifuged to collect them. The viability of the cells was determined by the known trypan blue exclusion method.\nThe obtained granulosa cells (viability: over 90%) were cultured in Ham's F-12/DME (1:1 vol/vol) (produced by Gibco Laboratories) containing 1.1 g/l NaHCO3, 40 mg/l gentamicin sulfate (produced by Sigma Chemical Co.), 1 mg/l Fungizone (produced by Gibco Laboratories) and 100 mg/l bovine serum albumin (BSA) on a collagen-coated plate in a moist atmosphere (5% CO2, 95% air) at 37° C. [Nakamura, M., et al., Endocrinology, 133, 538-544 (1993)]. The granulosa cells obtained by the culturing were used in Examples.\nThe rat granulosa cells obtained in Reference Example 1 (5×10^6 living cells) were cultured in 5 ml of a serum-free medium [Ham's F-12/DME (1:1 vol/vol)] on a plate of 60 mm diameter for 24 hours, and the resulting culture was allowed to stand separately in the presence of 30 ng/ml rat FSH (I-8) [obtained from National Hormone and Pituitary Distribution Program (Bethesda Md.)] and in the presence of FSH (30 ng/ml) and 2,3,7,8-tetrachlorodibenzop-dioxin (TCDD) [Sigma Chemical Co.] (1, 10 and 100 pmol/l). TCDD was used after being dissolved in dimethyl sulfoxide.\nAfter culturing was stopped 24, 48 and 72 hours later, RNAs formed in the cells were extracted to obtain pellets of the RNA mixture according to the AGTC method [trade name: Isogen, produced by Nippon Gene Co., Ltd., Chomezynski, P. and Sacchi, N., Anal. Biochem., 162, 156-159 (1987)]. To inhibit RNase, 15 μg of the obtained pellets was dissolved in diethyl-pyrocarbonate-treated water. The resulting solution was subjected to denatured agarose gel electrophoresis and the RNAs were transferred to a nylon membrane (trade name: Biodyne, produced by ICN) to carry out Northern blotting analysis. A film (trade name: Kodak X-Omat, produced by Eastman Kodak Co.) was exposed to the nylon membrane according to the standard manual of a nucleic acid detection kit (produced by Boehringer Mannheim) for fluorescence detection using 2202 UnitroScan Laser Densitometer (produced by LKB Co., Ltd.) to determine the mRNAs.\nRat LH-R mRNA was prepared according to the description in Mol. Cell. Endocrinol., 82, 259-263 (1991). The obtained rat […] into the EcoRI site of Bluescript ks (+) vector, followed by subcloning and linearization with BglII [Nakamura, K., Nakamura, M., Igarashi, S., Miyamoto, K., Eto, Y., Ibuki, Y., and Minegishi, T., Endocrinology, 134, 2329-2335 (1994)]. Then, digoxigenin-labeled LH-R cRNA corresponding to nucleotide numbers 440 to 2560 of the rat LH-R mRNA was prepared by in vitro transcription using T3 RNA polymerase and an RNA-labeling kit.\nEach of the rat LH-R mRNAs (5.4 kb) obtained in the above (1) was determined according to the luminescence intensity method. The luminescence intensity was measured with LKB 2202 UnitroScan Laser Densitometer (produced by LKB Co., Ltd.) using the probe prepared in the above (2).\nThe amount of each rat LH-R mRNA expressed was determined using the amount of GAPDH (glyceraldehyde 3-phosphate dehydrogenase) mRNA expressed as a reference value to obtain the relative value (%) based on the control [addition of only FSH (30 ng/ml)]. The data were expressed in terms of […] of the values obtained by carrying out culturing three times under the same conditions. […]"}
{"smiles": "Clc1cc2c(cc1Cl)Oc1cc(Cl)c(Cl)cc1O2", "note": "[TCDD, 2,3,7,8-tetrachlorodibenzop-dioxin]", "values": [{"measurement": "expression of LH-R mRNA (Northern blotting)", "setting": "1 pmol/l TCDD plus FSH 30 ng/ml, 48 hours", "result": "a little decrease"}, {"measurement": "expression of LH-R mRNA (Northern blotting)", "setting": "10 pmol/l TCDD plus FSH 30 ng/ml, 48 hours", "result": "clearly inhibited"}, {"measurement": "amount of expressed LH-R mRNA versus FSH alone (Northern blotting)", "setting": "10 pmol/l TCDD plus FSH 30 ng/ml, after 24 hours of standing", "result": "difference in the amount of expressed LH-R mRNA already appeared"}, {"measurement": "amount of LH-R mRNA expressed relative to that without TCDD addition", "setting": "10 pmol/l TCDD plus FSH 30 ng/ml, after 24 hours", "result": "less than 50%"}, {"measurement": "amount of LH-R mRNA expressed relative to that without TCDD addition", "setting": "10 pmol/l TCDD plus FSH 30 ng/ml, after 48 hours", "result": "less than 50%"}, {"measurement": "amount of LH-R mRNA expressed relative to that without TCDD addition", "setting": "10 pmol/l TCDD plus FSH 30 ng/ml, after 72 hours", "result": "less than 50%"}, {"measurement": "concentration dependency of LH-R mRNA expression (densitometer)", "setting": "1, 10, 100 pmol/l TCDD plus FSH 30 ng/ml, 48 hours", "result": "decreased in a manner dependent upon the amount of TCDD added"}]}
